# Legend:
# MDA-MB-436 cells = assay: Assay on inhibitory activity for MDA-MB-436 cell proliferation (CCK-8); type: cell-based; settings: 168 h incubation, CCK-8, absorbance at 450 nm
# Method: 1.1 Assay on inhibitory activity for MDA-MB-436 cell proliferation MDA-MB-436 cells in a good growth state were collected into a centrifuge tube, adjusted to a cell density of 2×10^4 cells/mL using a complete medium (DMEM high glucose+[…]+1× insulin-transferrin-selenium (JTS-G)+16 μg/mL reduced glutathione), and seeded in a 96-well plate (100 μL/well), and the plate was incubated overnight in a cell incubator Compounds were added using a pipettor, such that the final concentrations of the compounds were 400 nM-0.02 nM. The wells were set in duplicate, and a control well was set. After 168 h of incubation in the cell incubator, the assay reagent CCK-8 (manufacturer: Dojindo Laboratories, Beijing; 10 μL/well) was added. After 1.5 h of incubation in the cell incubator, the absorbance was measured at 450 nm on a PerkinElmer Envision microplate reader.
# PARP1 [1] = target: T1, PARP1 (Homo sapiens, UniProt P09874); assay: Assay on PARP1 protein activity (chemiluminescence assay kit); type: biochemical; settings: PARP1 enzyme, 1 h room temperature
# T1 construct: purchased BPS 80551
# PARP2 = target: T2, PARP2 (Homo sapiens, UniProt Q9UGN5); assay: PARP2-Tracer activity assay (FP method); type: binding
# T2 construct: purchased BPS 80502
# Method: (§1) The enzyme inhibition activity of the compounds against PARP1/2-Tracer was tested using the FP method. First, 100 nL of inhibitors with a final concentration of 1% DMSO were transferred to a 384-well reaction plate (Corning 4514) using Echo655. Then, 5 μL of PARP1/2 (BPS, Cat #80501/80502) enzyme solution was added to each well, followed by centrifugation at 1000 RPM for 1 min at room temperature, and the reaction was allowed to proceed for 10 min. Subsequently, 5 μL of Tracer (ICE, Cat #001315-009) solution was added to each well, followed by centrifugation at 1000 RPM for 1 min at room temperature, and the reaction was allowed to proceed for 60 min. PARP1/2 and Tracer were prepared in a buffer containing 50 mM Tris (pH 8.0), 10 mM MgCl2, 150 mM NaCl, and 0.001% Triox-100, with final concentrations of 5/10 nM and 2.5 nM, respectively. Finally, the FP signal was read using BMG (PHERAstar FSX), and the IC50 values and nonlinear regression curve fitting were obtained using GraphPad Prism software.
# PARP1 [2] = target: T1, PARP1; assay: PARP1-Tracer activity assay (FP method); type: binding
# Method: as §1
# T1 sequence (P09874 whole entry): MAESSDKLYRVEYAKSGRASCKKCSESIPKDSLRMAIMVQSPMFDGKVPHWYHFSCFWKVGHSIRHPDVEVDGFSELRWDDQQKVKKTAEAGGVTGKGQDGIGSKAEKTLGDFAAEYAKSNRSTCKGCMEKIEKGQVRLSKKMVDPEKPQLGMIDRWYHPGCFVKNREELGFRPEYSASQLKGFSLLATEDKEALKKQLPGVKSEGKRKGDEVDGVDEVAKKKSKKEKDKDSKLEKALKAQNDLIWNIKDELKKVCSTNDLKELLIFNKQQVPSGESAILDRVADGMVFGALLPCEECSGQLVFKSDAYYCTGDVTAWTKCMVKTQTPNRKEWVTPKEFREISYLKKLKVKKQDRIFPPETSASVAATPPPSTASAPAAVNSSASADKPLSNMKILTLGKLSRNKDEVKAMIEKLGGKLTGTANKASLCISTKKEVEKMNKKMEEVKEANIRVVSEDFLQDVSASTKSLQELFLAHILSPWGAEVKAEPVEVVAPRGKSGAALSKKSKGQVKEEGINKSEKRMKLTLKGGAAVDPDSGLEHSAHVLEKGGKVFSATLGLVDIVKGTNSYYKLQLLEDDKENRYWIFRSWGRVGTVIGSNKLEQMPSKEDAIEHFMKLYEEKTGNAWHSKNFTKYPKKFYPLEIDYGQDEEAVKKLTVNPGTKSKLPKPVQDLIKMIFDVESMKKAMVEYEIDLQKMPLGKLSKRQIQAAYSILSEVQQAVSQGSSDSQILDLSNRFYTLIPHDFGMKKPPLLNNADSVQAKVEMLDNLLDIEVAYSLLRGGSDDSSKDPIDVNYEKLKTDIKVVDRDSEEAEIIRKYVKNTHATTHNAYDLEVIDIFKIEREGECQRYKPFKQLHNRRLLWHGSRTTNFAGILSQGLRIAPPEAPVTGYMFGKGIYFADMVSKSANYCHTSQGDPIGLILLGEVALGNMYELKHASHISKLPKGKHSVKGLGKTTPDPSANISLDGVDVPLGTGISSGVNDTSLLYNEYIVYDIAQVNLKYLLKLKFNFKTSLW
# T2 sequence (Q9UGN5 whole entry): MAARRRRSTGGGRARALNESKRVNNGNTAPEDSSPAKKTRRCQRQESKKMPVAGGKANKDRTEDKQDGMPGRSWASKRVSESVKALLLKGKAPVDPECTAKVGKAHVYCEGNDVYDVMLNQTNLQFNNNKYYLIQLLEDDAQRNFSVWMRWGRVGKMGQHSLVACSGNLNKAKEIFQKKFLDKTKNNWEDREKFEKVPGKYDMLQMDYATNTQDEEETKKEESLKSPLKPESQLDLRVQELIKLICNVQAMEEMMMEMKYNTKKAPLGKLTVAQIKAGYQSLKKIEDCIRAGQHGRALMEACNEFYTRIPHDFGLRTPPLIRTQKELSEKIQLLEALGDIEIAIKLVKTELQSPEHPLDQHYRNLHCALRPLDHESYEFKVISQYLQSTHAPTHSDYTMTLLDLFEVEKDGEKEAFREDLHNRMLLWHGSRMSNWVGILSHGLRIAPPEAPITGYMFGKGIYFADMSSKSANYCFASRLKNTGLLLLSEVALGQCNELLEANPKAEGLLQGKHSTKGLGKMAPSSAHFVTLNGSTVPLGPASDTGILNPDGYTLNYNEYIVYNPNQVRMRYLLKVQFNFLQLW
"IC50 (MDA-MB-436 cells; Homo sapiens, MDA-MB-436)",SMILES,further results
≤ 0.05 µM,CCc1cc2ccc(CN3CC(N4Cc5cn(C(=O)NC)nc5C4)C3)cc2[nH]c1=O [Compound 1],
≤ 0.05 µM,CCc1cc2ncc(CN3CC(N4Cc5cn(C(=O)NC6CC6)nc5C4)C3)cc2[nH]c1=O [Compound 5],
≤ 0.05 µM,CCc1cc2ncc(CN3CC(N4Cc5nc(C(=O)NC)sc5C4)C3)cc2[nH]c1=O [Compound 7],
≤ 0.05 µM,CCc1cc2ncc(CN3CC(N4Cc5cn(C(=O)NC)nc5C4)C3)cc2[nH]c1=O [Compound 10],
≤ 0.05 µM,CCNC(=O)n1cc2c(n1)CN(C1CN(Cc3ccc4cc(CC)c(=O)[nH]c4c3)C1)C2 [Compound 13],
≤ 0.05 µM,[2H]C([2H])([2H])NC(=O)n1cc2c(n1)CN(C1CN(Cc3ccc4cc(CC)c(=O)[nH]c4c3)C1)C2 [Compound 14],
≤ 0.05 µM,CCc1cc2c(F)cc(CN3CC(N4Cc5cn(C(=O)NC)nc5C4)C3)cc2[nH]c1=O [Compound 16],

# Continued, compound first:
SMILES,"IC50 (MDA-MB-436 cells; Homo sapiens, MDA-MB-436)",further results
"CNC(=O)n1cc2c(n1)CN(C1CN(Cc3ccc4cc(C(F)(F)F)c(=O)[nH]c4c3)[C@@H]1C)C2 (single isomer, unassigned) [Compound 35]",,IC50 (MDA-MB-436 cells): ≤ 0.05 µM
"CNC(=O)n1cc2c(n1)CN(C1CN(Cc3ccc4cc(C(F)(F)F)c(=O)[nH]c4c3)[C@H]1C)C2 (single isomer, unassigned) [Compound 36]",≤ 0.05 µM,IC50 (PARP1 [1]): ≤ 0.01 µM
"CNC(=O)n1cc2c(n1)CN(C1CN(Cc3ccc4cc(C5CC5)c(=O)[nH]c4c3)[C@@H]1C)C2 (single isomer, unassigned) [Compound 40]",,IC50 (MDA-MB-436 cells): ≤ 0.05 µM
CNC(=O)n1cc2c(n1)CN(C1CN(Cc3ccc4cc(C5CC5)c(=O)[nH]c4c3)C1)C2 [Compound 2],,IC50 (PARP1 [1]): ≤ 0.001 µM
CCc1cc2ccc(CN3CC(N4Cc5cn(C(=O)NC6CC6)nc5C4)C3)cc2[nH]c1=O [Compound 4],≤ 0.05 µM,
CCc1cc2ccc(CN3CC(N4Cc5cn(C(=O)NC(C)C)nc5C4)C3)cc2[nH]c1=O [Compound 9],≤ 0.05 µM,
O=C(NC1CC1)n1cc2c(n1)CN(C1CN(Cc3ccc4cc(C5CC5)c(=O)[nH]c4c3)C1)C2 [Compound 11],≤ 0.05 µM,
CNC(=O)n1cc2c(n1)CN(C1CN(Cc3ccc4c5c(c(=O)[nH]c4c3)CCC5)C1)C2 [Compound 15],≤ 0.05 µM,
CNC(=O)n1cc2c(n1)CN(C1CN(Cc3ccc4cc(C(F)(F)F)c(=O)[nH]c4c3)C1)C2 [Compound 24],,IC50 (PARP2): > 0.5 µM; IC50 (PARP1 [2]): 0.00248 µM; IC50 (PARP1 [1]): ≤ 0.001 µM
CCc1cc2ccc(CN3C[C@@H](N4Cc5cn(C(=O)NC)nc5C4)[C@@H]3C)cc2[nH]c1=O [Compound 39],≤ 0.05 µM,
CNC(=O)n1cc2c(n1)CN([C@@H]1CN(Cc3ccc4cc(C5CC5)c(=O)[nH]c4c3)[C@H]1C)C2 [Compound 43],≤ 0.05 µM,
CCc1nc2ccc(CN3C[C@H](N4Cc5cn(C(=O)NC)nc5C4)[C@@H]3C)cc2[nH]c1=O [Compound 45],,IC50 (PARP2): > 0.5 µM; IC50 (PARP1 [2]): 0.00252 µM; IC50 (PARP1 [1]): ≤ 0.001 µM
CCc1cc2ncc(CN3C[C@H](N4Cc5cn(C(=O)NC)nc5C4)[C@@H]3C)cc2[nH]c1=O [Compound 47],,IC50 (MDA-MB-436 cells): ≤ 0.05 µM

# Source: patent US20260234149A1, “FUSED BICYCLIC COMPOUND” (CHIA TAI TIANQING PHARMACEUTICAL GROUP CO., LTD., priority 2022, published 2026)
